These results are taken from patent US5629298A, “Adenosine as a positive inotrop in the compromised heart” (University of Massachusetts Medical Center, priority 1995, dated 1997).

Read-outs that look alike come from different tables or passages of the source.

Assay [1] deals with rat ventricular myocytes. The assay can be described thus: Contractile function of individual ventricular myocytes (line scan camera edge detection, paced at 0.5 Hz). The format is cell-based. The following applies: for +dL/dtmax, maximal rate of shortening / -dL/dtmax, maximal rate of relaxation / DS, duration of shortening / LC, maximum length change (shortening) with contraction / TPS, time-to-peak shortening / TR, time to 75% relaxation: mean ± SE, N = 6; for inhibition at 2 µM: Rattus norvegicus, Ventricular myocyte, PIA at 2 μM. The procedure: Primary cultures of adult rat ventricular myocytes were prepared essentially according to previously described methods (Romano et al., Am. J. Physiol. 257:H1088 (1989)). Two male Sprague-Dawley rats (Charles River, Wilmington, Mass. or Harlan, Indianapolis, Ind.) were decapitated, and the hearts were rapidly excised and constant pressure (70 cm H2) and nonrecirculated) perfused for 10 minutes through the aortas with filtered (0.45 μm membrane filter) perfusing solution (NaCl, 118 mM; glucose, 10 mM; NaHCO3 25 mM; KCl, 4.69 mM; MgSO4 1.18 mM; and KH2 PO4, 1.18 mM; (pH 7.4)), to which […] was added, at 37° C. After equilibration, the hearts were constant pressure perfused with fresh physiological saline ("PS") containing no added Ca^2+ until spontaneous contractions ceased (i.e., ~30 seconds). The hearts were then perfused for 4-10 minutes in a nonrecirculating manner with PS containing 0.73 mg/ml collagenase, 0.16 mg/ml hyaluronidase, 1 mg/ml recrystallized bovine serum albumin ("BSA") and 48.4 μM Ca^2+ at a rate of 3-4 ml/min/heart. Ventricles, free of atria, were removed from the perfusion system, cut into 8 pieces and placed in a 50 ml Erlenmeyer flask with 5 ml of PS containing 0.73 mg/ml collagenase, 0.16 mg/ml hyaluronidase, 2.5 mg/ml BSA, and 50 μM Ca^2+ (incubation solution). The flask was gently shaken (40 cycles/min) in a reciprocating water bath with continuous gassing (95% O2, 5% CO2) for 7 minutes at 37° C. The incubation solution was aspirated and this shaking procedure was repeated with fresh incubation solution 3-5 times depending on the likelihood that the tissue was ready to dissociate. After the final incubation period, the solution was aspirated and replaced with 10 ml of fresh incubation solution. The flask was then shaken rapidly (120 cycles/min) for 10 minutes with gassing to dissociate the myocytes. The flask contents were filtered through a 250 μm nylon mesh into a 50 ml polypropylene centrifuge tube, to which 40 ml of PS containing 5.95 mg/ml BSA and 99.7 μm Ca^2+ (wash solution) was gradually added.
The myocytes were allowed to settle for 15 minutes, and the upper two thirds of the wash solution was aspirated. Upon the addition of 30-35 ml of wash solution, this settling step was repeated. The wash solution was aspirated and the myocyte pellet was resuspended in 10 ml of minimum essential medium ("MEM"). The myocyte suspension was allowed to settle for 5 minutes and then brought to a final volume of 22 ml with MEM. Two milliliters of the myocyte suspension was seeded onto each of 60 mm culture dishes containing 2 ml of MEM.
The contractile function of individual myocytes was assessed by dispersing 50-100 cells in a 506 μl myocyte chamber (11×23×2 mm deep). The chamber (FIG. 1) was continuously suffused (850 μl/min) with fresh suffusion solution ("SS") in mM: 136.4 NaCl, 4.7 KCl, 1.0 CaCl2, 10 hydroxyethylpiperzine-ethanesulfonicacid (HEPES), 1.0 NaHCO3, 1.2 MgSO4, 1.2 KH2 PO4, 10 glucose, 0.6 ascorbate, 1.0 pyruvate) at 20° C. The chamber was mounted on an inverted microscope stage and contained platinum wire electrodes for initiating myocyte contraction at 0.5 Hz (voltage 10% above threshold for 5 msec duration).
The image of the myocyte was projected via an inverted microscope at 300× onto a line scan camera (Fairchild, Model 1600R) containing a linear array (1×3456) of photodiodes. When aligned with the longitudinal axis of the cell the camera detected the movement of the 2 ends of the myocyte upon contraction (shortening and relengthening). […] When the myocyte was transilluminated, both ends of the cell were easily discriminated. Myocyte length and length change with respect to time for a single contraction was measured by determining the pixels in which the appropriate transitions between light and dark occurred. The line scan camera was calibrated with a stage micrometer scaled in 10 μm divisions. The signals from the camera were directed to a Hewlett Packard computer (Model Vectra RS/20C). […]

The test system of assay [2] is ventricular myocyte membrane adenylyl cyclase. Briefly: Adenylyl cyclase activity of ventricular myocyte membranes. The format is biochemical, rat. The procedure:
After a 3-4 hour incubation period, myocytes were harvested by placing the culture dishes on ice; aspirating and discarding the culture medium; scraping the attached cells into 1 ml of ice cold buffer (pH 7.4) containing 10 mM HEPES and 1 mM dithiothreitol (DTT); and transferring the mixture to a 40 ml centrifuge tube. The culture dishes were rinsed twice with buffer, and the rinses were added to the centrifuge tube. The myocytes were centrifuged at 45,000 x g for 45 minutes and the supernatant was discarded. The pellet was resuspended in 40 mM HEPES (pH 7.4) to yield 3.5-4 mg protein/ml and homogenized with a small clearance Dounce tissue grinder (8 strokes). The membranes were centrifugated as described above, resuspended (3-4 mg protein/ml) in 40 mM HEPES (pH 7.4), and assayed for adenylyl cyclase activity immediately or stored at -80° C. and assayed within 10 days.
The assay system used to measure adenylyl cyclase activity minimizes the formation of endogenous adenosine. The assay used was essentially as described by Romano et al. (supra). Myocyte membranes (15-25 μg protein) were incubated in 50 μl of a buffer containing 40 mM HEPES (pH 7.4), 5 mM MgCl2, 1 mM DTT, 5.5 mM KCl, 0.1 mM 2'-deoxy-cAMP (dcAMP), 0.1 mM 2'-deoxy ATP (dATP), 20 mM phosphoenolpyruvate, 2 units pyruvate kinase, 0.25 units adenosine deaminase, 1 mM ascorbic acid, 100 mM NaCl, 0.1 mM ethyleneglycol-bis (β-aminoethylether) N,N,N',N',-tetroaceticacid (EGTA), 10 μM guanosine 5'-triphosphate (GTP), and ~2×10^6 counts/minutes of [α-^32 P]dATP for 20 minutes at 30° C. The reaction was stopped by adding 40 μl of a solution containing 2% sodium dodecyl sulfate (SDS), 45 mM ATP, 1.3 mM cAMP, and [^3 H]dcAMP (~4000 count/min) and by boiling for 2 minutes.

For assay [3], the system named is rat heart. The assay can be described thus: Isolated perfused heart, normoperfused or hypoperfused (mechanically depressed): LVP, +dP/dtmax, -dP/dtmax. The following applies: atenolol; hypoperfusion. How it is done:
Male Sprague-Dawley rats (500-550 g) were anesthetized with pentobarbital (40 mg/kg, i.p.) and treated with heparin (500 units, i.p.) for 15 minutes. Hearts were excised, rinsed in iced physiological saline ("PS") and perfused with PS (37° C.) via an aortic cannula at a constant rate of 18-20 ml/min. Perfusion pressure ranged from 50 to 60 mm Hg. The PS contained: NaCl, 118 mM; KCl, 4.7 mM; CaCl2, 2.5 mM; NaHCO3, 25 mM; KH2 PO4, 1.2 mM; MgSO4 1.2 mM; glucose 10 mM; and pyruvate 1.8 mM. The pH was maintained at 7.4 by gassing the PS with a 95% O2 /5% CO2 gas mixture. Platinum wire electrodes were inserted into the right atrium to allow pacing of the heart (300 contractions per minute) throughout the perfusion period. Developed left ventricular pressure (LVP) was measured with a saline-filled balloon inserted into the lumen of the left ventricle via the left atrium and attached by a polyethylene cannula to a pressure transducer. The pressure signal was electronically differentiated to obtain the maximum rates of left ventricular pressure development (+dP/dtmax) and relaxation (-dP/dtmax). Balloon volume was varied until the maximal obtainable dP/dt was attained. This optimal preload, ranging from 5 to 10 mm Hg, was maintained constant, permitting isovolumic contraction of the heart. Aortic perfusion pressure was monitored with another pressure transducer. All the LVP, +dP/dtmax, -dP/dtmax and aortic perfusion data were continually recorded on a multichannel polygraph. At the end of the experiment, the wet heart weights were determined; they ranged from 1.4 to 1.8 g.
After instrumentation, the hearts were normoperfused at 18-20 ml/min for 20 minutes, resulting in an aortic perfusion pressure of 50-60 mm Hg. Isoproterenol, adenosine, CGS-21680, DPCPX, atenolol, or a combination of these agents was administered for 1 to 2 minutes, via the aortic perfusion cannula, at 1/100th the perfusion flow rate, to achieve the stated PS concentrations. Isoproterenol was administered for only 5 seconds. To cause mechanical depression of the perfused hearts, the perfusion flow was lowered 5-6 ml/min. The resulting aortic perfusion pressure decreased to 20-30 mm Hg. The various agents either alone or in combination were administered via the PS to the hypoperfused hearts at 1/100th the perfusion flow rate, at the concentrations indicated.

Where [4] appears, read: Table 5, CGS-21680 and/or CGS-15943 at 10^-5 M, 10 min.
The mark [5] stands for this setting: Table 3, 1 μM PIA, 0.1 μM ISO, 0.1 μM DPCPX added sequentially every 8-10 min, maximum responses.
Where [6] appears, read: Table 6, 10^-5 M SHA-082, 10^-5 M NECA, 10^-4 M adenosine, 2 × 10^-7 M DPCPX, 10^-5 M CGS-15943.
Setting [7] is: addition of 0.1 μM DPCPX to 1 μM PIA + 0.1 μM ISO.

With `N=c1[nH]c2ccc(Cl)cc2c2nc(-c3ccco3)nn12` [CGS-15943, 9-chloro-2-(2-furanyl)-5,6-dihydro-1,2,4-triazolo-(1,5-C)quinazolin-5-imine], the “effect on the adenosine induced increases in contractile variables” value in assay [1] (10 μM CGS-15943, 100 μM adenosine + 0.2 μM DPCPX) is reported as “inhibited”. Moreover, in assay [1] (CGS-15943 (10 μm), CGS-21680 (10 μm)), the “effect on the increase in myocyte contractility produced by CGS-21680” value is “prevented”. In addition, in assay [1] (setting [4]), the “+dL/dtmax, maximal rate of shortening” value was 146 ± 10 μm/msec; the “-dL/dtmax, maximal rate of relaxation” value amounted to 123 ± 11 μm/msec; the “DS, duration of shortening” value amounted to 331 ± 15 ms; the “LC, maximum length change (shortening) with contraction” value (from here on “LC, maximum length change (shortening)”) is reported as 18 ± 2 μm. Also, in assay [1] (setting [4]), the “TPS, time-to-peak shortening” value is 122 ± 3 ms and the “TR, time to 75% relaxation” value stood at 285 ± 10 ms. The “effect on the CGS-21680 increase in cyclase activity” value in assay [2] (10 μM CGS-15943, 0.1 μM DPCPX present) was “prevented”. The “effect on the NECA increase in membrane cyclase activity” value in assay [2] (CGS-15943 at 10 μM, both in the absence and presence of DPCPX) is “prevented”.

`CC(C)NCC(O)COc1ccc(CC(N)=O)cc1` (centres unmarked) [atenolol]: in assay [3], the “effect on the inotropic responses induced by adenosine or adenosine plus DPCPX” value is “did not affect” and the “effect on the isoproterenol elicited contractile responses” value is on record as “completely prevented”.

For the compound `CC(Cc1ccccc1)Nc1ncnc2c1ncn2[C@@H]1O[C@H](CO)[C@@H](O)[C@H]1O` (some centres unmarked) [PIA, phenylisopropyladenosine], in assay [1] (PIA at 1 μM alone), the “effect on ventricular myocyte contractile variables” value is “no effect”. Besides, the inhibition at 2 µM in assay [1] (ISO 0.2 μM, read-out: reduction of the ISO-induced decrease in DS) worked out at 47%. For the same compound, in assay [1] (ISO 0.2 μM, read-out: reduction of the ISO-induced decrease in TPS), the inhibition at 2 µM came to 82%. Further, the inhibition at 2 µM in assay [1] (ISO 0.2 μM, read-out: reduction of the ISO-induced decrease in TR) turned out to be 37%. In assay [1] (ISO 0.2 μM, read-out: reduction of the ISO-induced increase in +dL/dtmax), the inhibition at 2 µM is 60%. Further, the inhibition at 2 µM in assay [1] (ISO 0.2 μM, read-out: reduction of the ISO-induced increase in -dL/dtmax) amounted to 78%. Further, in assay [1] (ISO 0.2 μM, read-out: reduction of the ISO-induced increase in LC), the inhibition at 2 µM was 91%. Besides, in assay [1] (setting [5]), the “+dL/dtmax, maximal rate of shortening” value was 115 ± 17 μm/msec; the “-dL/dtmax, maximal rate of relaxation” value stood at 85 ± 21 μm/msec; the “DS, duration of shortening” value is 374 ± 23 ms; the “LC, maximum length change (shortening)” value was 16 ± 2 μm. Also, in assay [1] (setting [5]), the “TPS, time-to-peak shortening” value turned out to be 153 ± 5 ms and the “TR, time to 75% relaxation” value amounted to 308 ± 8 ms.

In the case of `CCCn1c(=O)c2[nH]c(C3CCCC3)nc2n(CCC)c1=O` [DPCPX, 1,3-dipropyl-8-cyclopentylxanthine], the “effect on myocyte contractility when administered alone” value in assay [1] (100 μM adenosine or 0.2 μM DPCPX) is “without effect”. Further, the “effect on the PIA reduction of the ISO induced contractile responses” value in assay [1] (DPCPX at 0.2 μM, ISO 0.2 μM, PIA 2 μM) is “reversed”. In assay [1] (setting [6]), the “+dL/dtmax, maximal rate of shortening” value is reported as 179 ± 9 μm/msec; the “-dL/dtmax, maximal rate of relaxation” value stood at 147 ± 11 μm/msec; the “DS, duration of shortening” value came to 279 ± 15 ms; the “LC, maximum length change (shortening)” value is 17 ± 1 μm. Also, in assay [1] (setting [6]), the “TPS, time-to-peak shortening” value is 116 ± 3 ms and the “TR, time to 75% relaxation” value was 264 ± 11 ms. In addition, in assay [1] (setting [7]), the “further increase of the ISO induced enhancement in +dL/dtmax” value came to 40%, the “further increase of the ISO induced enhancement in LC” value is given as 26% and the “lowering of DS below that observed in the presence of PIA+ISO” value was 27%. The “effect on the PIA inhibition of ISO stimulated adenylyl cyclase activity” value in assay [2] (DPCPX at 0.1 μM) is recorded as “prevented”.

Turning to `Cn1c(=O)c2c(nc(C=Cc3cccc(Cl)c3)n2C)n(C)c1=O` [CSC, 8-(3-chlorostyryl)caffeine], the “effect on the increase in the contractile variables elicited by 1 μM CGS-21680” value in assay [1] (CSC at 1 μM, in the presence of 0.2 μM DPCPX) is “prevented”.
